Among the test systems are 786-0; ACHN; CCRF-CEM; DU-145; EKVX; HL-60; HT-29; IGROV-1; MDA-MB-231; MDA-N; NCI-H226; NCI-H23; NCI-H522; OVCAR-8; SF-268; SF-539; SK-MEL-28; T47D; UACC-257; UO-31.
Assay in all cases: inhibition of tumour cell growth, NCI panel, 48 h

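Assay format: 96-well plates, 48-hour exposure. At the GI50, growth is halved.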 Activity calls are given as the source filed them. Cut-off read from the data, not from the text of the source: active = GI50 up to about 1.1 µM and inactive = higher.

As for `O=c1oc2ccccc2c2nc3ccccc3cc12`, the GI50 in the experiment with 786-0 was 28.2 µM (inactive); in the experiment with ACHN, 31 µM (inactive); in the experiment with CCRF-CEM, > 100 µM (inactive); in the experiment with DU-145, > 100 µM (inactive); in the experiment on EKVX it was 79.8 µM (inactive); in the experiment with HL-60 it was > 100 µM (inactive). Moreover, the GI50 in the experiment on HT-29 is 99.5 µM (inactive); with IGROV-1, 35 µM (inactive); in the experiment with MDA-MB-231 it was 23 µM (inactive); in the experiment with MDA-N it was > 100 µM (inactive); with NCI-H226 it was 37.4 µM (inactive); in the experiment on NCI-H23 it was > 100 µM (inactive). Further, the GI50 in the experiment on NCI-H522 was 46.2 µM (inactive); in the experiment with OVCAR-8, 46.7 µM (inactive); in the experiment with SF-268 it was > 10 µM (inactive); in the experiment on SF-539 it was 11.6 µM (inactive); in the experiment with SK-MEL-28, > 100 µM (inactive); in the experiment with T47D, > 100 µM (inactive). For the same molecule, the GI50 in the experiment with UACC-257 is 96.6 µM (inactive); in the experiment with UO-31, 34.8 µM (inactive).
For `C(=N\N=C1NCCCN1)/c1ccc2ccccc2c1`, the GI50 was 11.7 µM (inactive) in the experiment on 786-0; 10.5 µM (inactive) in the experiment with ACHN; 11.2 µM (inactive) in the experiment on CCRF-CEM; 11 µM (inactive) in the experiment with DU-145; 14.1 µM (inactive) with EKVX; 5.24 µM (inactive) in the experiment with HL-60. The GI50 in the experiment with HT-29 was 8.39 µM (inactive); in the experiment on IGROV-1, 11.7 µM (inactive); with MDA-MB-231 it was 6.32 µM (inactive); with MDA-N it was 8.97 µM (inactive); in the experiment on NCI-H226 it was 12.4 µM (inactive); in the experiment on NCI-H23, 17.6 µM (inactive). Also, the GI50 is 15.1 µM (inactive) with NCI-H522; 14.7 µM (inactive) in the experiment with OVCAR-8; 14.2 µM (inactive) in the experiment with SF-268; 16.8 µM (inactive) in the experiment with SF-539; 15.9 µM (inactive) in the experiment with SK-MEL-28; 10.4 µM (inactive) with T47D. Further, the GI50 with UACC-257 is 17.3 µM (inactive); in the experiment on UO-31, 11.6 µM (inactive).
Consider `COc1ccc(N2C(=O)CC(C3CC(C(C)(C)C)CCC3=O)C2=O)cc1` (stereo not given), for which the GI50 in the experiment on 786-0, in the experiment with ACHN, in the experiment with CCRF-CEM, in the experiment on DU-145, in the experiment with EKVX and in the experiment with HL-60 was > 100 µM (inactive) throughout. For the same molecule, the GI50 in the experiment on HT-29, in the experiment on IGROV-1, in the experiment with MDA-MB-231, with MDA-N, in the experiment with NCI-H226 and with NCI-H23 was > 100 µM (inactive) throughout. The GI50 was 10.7 µM (inactive) in the experiment with NCI-H522; > 100 µM (inactive) with OVCAR-8; > 100 µM (inactive) in the experiment with SF-268; > 100 µM (inactive) in the experiment on SF-539; > 100 µM (inactive) in the experiment with SK-MEL-28; > 100 µM (inactive) in the experiment with T47D. Moreover, the GI50 in the experiment on UACC-257 and in the experiment on UO-31 was > 100 µM (inactive) in each case.
Turning to `COC(=O)[C@H](Cc1ccccc1)NC(=O)c1ccc(CNC(=O)/C=C/c2ccc(OCc3ccccc3)cc2)cc1`, the GI50 in the experiment with 786-0 was 5.11 µM (inactive); with ACHN, 14.9 µM (inactive); in the experiment with CCRF-CEM, 17.4 µM (inactive); in the experiment with DU-145 it was 12.4 µM (inactive); with EKVX, 25.7 µM (inactive); in the experiment on HL-60 it was < 0.01 µM (active). In addition, the GI50 with HT-29 was 13.5 µM (inactive); with IGROV-1, 2.7 µM (inactive); with MDA-MB-231 it was 16.5 µM (inactive); with MDA-N, 2.19 µM (inactive); in the experiment with NCI-H226, 21.3 µM (inactive); in the experiment with NCI-H23 it was 14.5 µM (inactive). The GI50 in the experiment with NCI-H522 is 65.9 µM (inactive); in the experiment with OVCAR-8, 13.3 µM (inactive); in the experiment on SF-268 it was 10.8 µM (inactive); in the experiment with SF-539, 16.4 µM (inactive); in the experiment with SK-MEL-28, 4.49 µM (inactive); in the experiment on T47D, 18.8 µM (inactive). The GI50 with UACC-257 is 2.49 µM (inactive); with UO-31, 14 µM (inactive).
As to `CC(C)c1nc(Cl)c(Cl)c(Cl)n1`, the GI50 in the experiment on 786-0 is 2.99 µM (inactive); with ACHN, 0.769 µM (active); in the experiment on CCRF-CEM it was 1.07 µM (active); in the experiment with DU-145, 7.69 µM (inactive); with EKVX, 11.7 µM (inactive); in the experiment on HL-60 it was 1.71 µM (inactive). Also, the GI50 in the experiment with HT-29 was 2.1 µM (inactive); in the experiment on IGROV-1 it was 3.08 µM (inactive); with MDA-MB-231, 8.85 µM (inactive); in the experiment with MDA-N it was 4.35 µM (inactive); with NCI-H226, 17.7 µM (inactive); with NCI-H23, 4.06 µM (inactive). In addition, the GI50 was 0.759 µM (active) in the experiment on NCI-H522; 2.1 µM (inactive) with OVCAR-8; 1.91 µM (inactive) in the experiment on SF-268; 9.2 µM (inactive) in the experiment with SF-539; 14.2 µM (inactive) with SK-MEL-28; 4.14 µM (inactive) in the experiment on T47D. For the same molecule, the GI50 with UACC-257 was 4.29 µM (inactive); in the experiment with UO-31, 1.19 µM (inactive).
On to `CCOC(=O)CCSc1nc2ccc(I)cc2c(=O)n1Cc1ccccc1`, for which the GI50 in the experiment with 786-0 was 25.6 µM (inactive); in the experiment on ACHN, 29.5 µM (inactive); in the experiment on CCRF-CEM it was 15.8 µM (inactive); in the experiment on DU-145 it was 37.1 µM (inactive); in the experiment with EKVX, 22.3 µM (inactive); with HL-60, 19.5 µM (inactive). Also, the GI50 in the experiment with HT-29 is 34.4 µM (inactive); with IGROV-1 it was 9.91 µM (inactive); in the experiment with MDA-MB-231, 28.2 µM (inactive); in the experiment on MDA-N, 25.7 µM (inactive); in the experiment on NCI-H226, 21.6 µM (inactive); in the experiment on NCI-H23 it was 15.6 µM (inactive). In addition, the GI50 is 10.7 µM (inactive) in the experiment on NCI-H522; 37.5 µM (inactive) in the experiment with OVCAR-8; 27.2 µM (inactive) in the experiment on SF-268; 36.4 µM (inactive) in the experiment with SF-539; > 65.6 µM (inactive) in the experiment with SK-MEL-28; 26.9 µM (inactive) in the experiment with T47D. Moreover, the GI50 in the experiment on UACC-257 is 25.5 µM (inactive); in the experiment on UO-31, 0.395 µM (active).
With `N#CSc1[nH]cnc1C(N)=O`, the GI50 in the experiment with 786-0 was 40.9 µM (inactive); in the experiment on ACHN, > 100 µM (inactive); with CCRF-CEM, 5.21 µM (inactive); in the experiment with DU-145, > 100 µM (inactive); in the experiment with EKVX, > 100 µM (inactive); in the experiment with HL-60, 2.8 µM (inactive). Further, the GI50 in the experiment with HT-29 is > 100 µM (inactive); with IGROV-1 it was > 100 µM (inactive); in the experiment on MDA-MB-231, 55.7 µM (inactive); in the experiment on MDA-N, 22.1 µM (inactive); in the experiment with NCI-H226, > 100 µM (inactive); in the experiment with NCI-H23 it was > 100 µM (inactive). The GI50 in the experiment with NCI-H522 was 51.4 µM (inactive); with OVCAR-8, > 100 µM (inactive); in the experiment with SF-268, > 100 µM (inactive); with SF-539, 77.3 µM (inactive); in the experiment with SK-MEL-28, 76.2 µM (inactive); in the experiment on T47D, > 75.5 µM (inactive). In addition, the GI50 in the experiment with UACC-257 was > 100 µM (inactive); in the experiment with UO-31, > 93.5 µM (inactive).
For `O=c1c(Cl)nsnc1Cl`, the GI50 with 786-0 was 1.7 µM (inactive); with ACHN it was 6.1 µM (inactive); in the experiment with CCRF-CEM it was 0.984 µM (active); in the experiment on DU-145, 17.3 µM (inactive); in the experiment on EKVX, 25.6 µM (inactive); in the experiment on HL-60, 0.787 µM (active). Further, the GI50 was 24.2 µM (inactive) in the experiment with HT-29; 16.4 µM (inactive) in the experiment with IGROV-1; 19.3 µM (inactive) in the experiment with MDA-MB-231; 18.7 µM (inactive) in the experiment with MDA-N; 22.9 µM (inactive) with NCI-H226; 23.3 µM (inactive) with NCI-H23. In addition, the GI50 in the experiment on NCI-H522 is 2.02 µM (inactive); with OVCAR-8 it was 36.1 µM (inactive); in the experiment with SF-268 it was 26.4 µM (inactive); in the experiment on SF-539, 12.9 µM (inactive); with SK-MEL-28, 18.3 µM (inactive); in the experiment with T47D it was 3.08 µM (inactive). Further, the GI50 was 10.4 µM (inactive) in the experiment on UACC-257 and 6.4 µM (inactive) in the experiment with UO-31.
Regarding `CC(C)=CCN1CC(C)C(=O)Nc2ccccc21` (stereo not given), the GI50 with 786-0, with ACHN, with CCRF-CEM, in the experiment on DU-145, in the experiment with EKVX and in the experiment on HL-60 was > 100 µM (inactive) throughout. Besides, the GI50 in the experiment with HT-29 is > 100 µM (inactive); in the experiment on IGROV-1, > 100 µM (inactive); in the experiment with MDA-MB-231, > 100 µM (inactive); in the experiment on MDA-N, > 100 µM (inactive); with NCI-H226 it was 65.2 µM (inactive); in the experiment on NCI-H23, > 100 µM (inactive). Moreover, the GI50 is 66.8 µM (inactive) with NCI-H522; 78.9 µM (inactive) with OVCAR-8; > 100 µM (inactive) with SF-268; > 100 µM (inactive) in the experiment on SF-539; > 100 µM (inactive) in the experiment on SK-MEL-28; > 100 µM (inactive) in the experiment on T47D. The values for the GI50 in the experiment on UACC-257 and with UO-31 were 44.7 µM (inactive) and > 100 µM (inactive), respectively.
With `CCCc1c(O)c(=O)c2c(OC)cc(OC)c3c4c(OC)cc(OC)c5c(=O)c(O)c(CCC)c(c1c23)c54`, the GI50 in the experiment on 786-0 is 0.676 µM (active); in the experiment on ACHN it was 0.617 µM (active); in the experiment with CCRF-CEM, 0.181 µM (active); in the experiment on DU-145 it was 0.37 µM (active); with EKVX, 1.06 µM (active); with HL-60, 1.74 µM (inactive). Besides, the GI50 is 0.729 µM (active) with HT-29; 0.337 µM (active) with IGROV-1; 1.56 µM (inactive) in the experiment on MDA-MB-231; 0.425 µM (active) with MDA-N; 1.63 µM (inactive) in the experiment on NCI-H226; 0.474 µM (active) in the experiment on NCI-H23. For the same molecule, the GI50 with NCI-H522 was 0.199 µM (active); with OVCAR-8, 0.513 µM (active); in the experiment on SF-268, 0.714 µM (active); in the experiment on SF-539 it was 0.361 µM (active); in the experiment on SK-MEL-28, 3.13 µM (inactive); with T47D, 1.33 µM (inactive). Further, the GI50 in the experiment with UACC-257 was 1.15 µM (inactive); with UO-31, 0.404 µM (active).

The record behind these values is ChEMBL document CHEMBL1201862, “PubChem BioAssay data set” (2004).
